In paper PMC11572954 (Science (New York, N.Y.), 2024):

Legend:
[1] = target: GPR84 (Homo sapiens, UniProt Q9NQS5); assay: DiscoverX cell-based reporter assay, agonist mode
[2] = target: T1, PPARδ (Homo sapiens, UniProt Q03181); assay: DiscoverX cell-based reporter assay, agonist mode
T1 sequence (Q03181 1-441): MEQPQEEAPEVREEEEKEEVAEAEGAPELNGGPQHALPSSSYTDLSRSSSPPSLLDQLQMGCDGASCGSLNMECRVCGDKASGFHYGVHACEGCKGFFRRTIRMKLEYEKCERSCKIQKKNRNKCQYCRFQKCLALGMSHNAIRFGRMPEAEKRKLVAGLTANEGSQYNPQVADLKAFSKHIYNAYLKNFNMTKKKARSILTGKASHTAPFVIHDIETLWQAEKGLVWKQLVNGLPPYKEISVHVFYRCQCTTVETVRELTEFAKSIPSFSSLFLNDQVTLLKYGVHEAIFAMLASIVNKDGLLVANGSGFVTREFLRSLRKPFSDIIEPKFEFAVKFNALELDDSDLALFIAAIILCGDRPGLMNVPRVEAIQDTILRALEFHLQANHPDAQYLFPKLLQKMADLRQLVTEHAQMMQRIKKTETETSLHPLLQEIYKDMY

[3] = target: T2, F. prausnitzii FAAH (CGOBPECO_01956) (Faecalibacterium prausnitzii, UniProt A0A564UB45); assay: LC-MS hydrolysis rate assay; assay type: biochemical; conditions: 100 uM OEA
T2 sequence (A0A564UB45 31-399): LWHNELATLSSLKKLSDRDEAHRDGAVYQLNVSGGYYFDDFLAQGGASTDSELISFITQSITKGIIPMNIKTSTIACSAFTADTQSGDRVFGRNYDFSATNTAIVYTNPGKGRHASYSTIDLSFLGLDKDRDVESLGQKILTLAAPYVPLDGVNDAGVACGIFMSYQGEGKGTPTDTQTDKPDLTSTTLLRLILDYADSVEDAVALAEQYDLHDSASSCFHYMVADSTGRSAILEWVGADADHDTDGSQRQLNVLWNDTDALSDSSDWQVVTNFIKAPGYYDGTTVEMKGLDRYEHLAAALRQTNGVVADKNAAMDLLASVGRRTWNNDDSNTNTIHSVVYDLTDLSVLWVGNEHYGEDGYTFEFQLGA

[4] = target: T3, PPARα (Homo sapiens, UniProt Q07869); assay: DiscoverX cell-based reporter assay, agonist mode
T3 sequence (Q07869 1-468): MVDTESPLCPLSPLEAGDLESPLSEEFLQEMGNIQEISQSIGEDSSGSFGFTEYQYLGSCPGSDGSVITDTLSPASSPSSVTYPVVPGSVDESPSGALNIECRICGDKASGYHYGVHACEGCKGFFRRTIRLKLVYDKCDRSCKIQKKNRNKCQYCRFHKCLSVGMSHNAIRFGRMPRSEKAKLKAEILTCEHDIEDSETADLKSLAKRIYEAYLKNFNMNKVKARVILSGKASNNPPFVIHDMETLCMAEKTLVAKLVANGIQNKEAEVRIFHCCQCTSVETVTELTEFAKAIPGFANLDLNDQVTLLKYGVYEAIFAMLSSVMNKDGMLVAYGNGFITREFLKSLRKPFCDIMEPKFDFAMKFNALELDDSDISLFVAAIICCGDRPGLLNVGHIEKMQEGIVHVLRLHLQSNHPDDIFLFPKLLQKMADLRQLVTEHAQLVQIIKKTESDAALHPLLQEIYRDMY

Chain of GPR84 (Q9NQS5 whole entry): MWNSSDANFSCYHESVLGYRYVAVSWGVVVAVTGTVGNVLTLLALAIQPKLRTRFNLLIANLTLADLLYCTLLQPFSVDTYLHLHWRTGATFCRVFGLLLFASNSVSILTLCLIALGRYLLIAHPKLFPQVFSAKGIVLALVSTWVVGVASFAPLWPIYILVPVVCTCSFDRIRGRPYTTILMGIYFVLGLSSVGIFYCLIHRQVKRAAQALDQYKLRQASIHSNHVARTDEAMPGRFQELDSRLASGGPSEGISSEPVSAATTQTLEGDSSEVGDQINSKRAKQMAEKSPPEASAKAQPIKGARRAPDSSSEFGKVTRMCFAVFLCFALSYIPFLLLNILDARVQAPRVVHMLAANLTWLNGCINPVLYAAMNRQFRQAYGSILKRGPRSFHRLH

CCCCCCCC/C=C\CCCCCCCC(=O)NCCO [OEA]
% activation at 10 μM [1]: GPR84, which was strongly activated by OEA
% activation at 10 μM [2]: OEA was a strong agonist of PPARδ and to a lesser extent PPARα
LC-MS hydrolysis rate assay [3]: hydrolytic activity of FAAH against PEA, OEA, C18:1-Arg, and C18:1-Lys (Fig. 2D)
% activation at 10 μM [4]: OEA was a strong agonist of PPARδ and to a lesser extent PPARα
